Test results reported in US11685734B2, “ATM kinase inhibitors and compositions and methods of use thereof” (CHDI Foundation, Inc., priority 2019, dated 2023).
Each block holds one compound with its values, some of them ahead of it.

What was measured:
[1] = molecular target: Recombinant, full length human FLAG-tagged ATM (Homo sapiens (Human), UniProt Q13315); assay: ATM ELISA for p53 S15 phosphorylation; type: biochemical; details: 0.75 nM ATM, 25 nM p53, 10 μM ATP, 30 min at 20° C.; read-out: ATM BIO IC50
Chain of Recombinant, full length human FLAG-tagged ATM (Q13315 whole entry): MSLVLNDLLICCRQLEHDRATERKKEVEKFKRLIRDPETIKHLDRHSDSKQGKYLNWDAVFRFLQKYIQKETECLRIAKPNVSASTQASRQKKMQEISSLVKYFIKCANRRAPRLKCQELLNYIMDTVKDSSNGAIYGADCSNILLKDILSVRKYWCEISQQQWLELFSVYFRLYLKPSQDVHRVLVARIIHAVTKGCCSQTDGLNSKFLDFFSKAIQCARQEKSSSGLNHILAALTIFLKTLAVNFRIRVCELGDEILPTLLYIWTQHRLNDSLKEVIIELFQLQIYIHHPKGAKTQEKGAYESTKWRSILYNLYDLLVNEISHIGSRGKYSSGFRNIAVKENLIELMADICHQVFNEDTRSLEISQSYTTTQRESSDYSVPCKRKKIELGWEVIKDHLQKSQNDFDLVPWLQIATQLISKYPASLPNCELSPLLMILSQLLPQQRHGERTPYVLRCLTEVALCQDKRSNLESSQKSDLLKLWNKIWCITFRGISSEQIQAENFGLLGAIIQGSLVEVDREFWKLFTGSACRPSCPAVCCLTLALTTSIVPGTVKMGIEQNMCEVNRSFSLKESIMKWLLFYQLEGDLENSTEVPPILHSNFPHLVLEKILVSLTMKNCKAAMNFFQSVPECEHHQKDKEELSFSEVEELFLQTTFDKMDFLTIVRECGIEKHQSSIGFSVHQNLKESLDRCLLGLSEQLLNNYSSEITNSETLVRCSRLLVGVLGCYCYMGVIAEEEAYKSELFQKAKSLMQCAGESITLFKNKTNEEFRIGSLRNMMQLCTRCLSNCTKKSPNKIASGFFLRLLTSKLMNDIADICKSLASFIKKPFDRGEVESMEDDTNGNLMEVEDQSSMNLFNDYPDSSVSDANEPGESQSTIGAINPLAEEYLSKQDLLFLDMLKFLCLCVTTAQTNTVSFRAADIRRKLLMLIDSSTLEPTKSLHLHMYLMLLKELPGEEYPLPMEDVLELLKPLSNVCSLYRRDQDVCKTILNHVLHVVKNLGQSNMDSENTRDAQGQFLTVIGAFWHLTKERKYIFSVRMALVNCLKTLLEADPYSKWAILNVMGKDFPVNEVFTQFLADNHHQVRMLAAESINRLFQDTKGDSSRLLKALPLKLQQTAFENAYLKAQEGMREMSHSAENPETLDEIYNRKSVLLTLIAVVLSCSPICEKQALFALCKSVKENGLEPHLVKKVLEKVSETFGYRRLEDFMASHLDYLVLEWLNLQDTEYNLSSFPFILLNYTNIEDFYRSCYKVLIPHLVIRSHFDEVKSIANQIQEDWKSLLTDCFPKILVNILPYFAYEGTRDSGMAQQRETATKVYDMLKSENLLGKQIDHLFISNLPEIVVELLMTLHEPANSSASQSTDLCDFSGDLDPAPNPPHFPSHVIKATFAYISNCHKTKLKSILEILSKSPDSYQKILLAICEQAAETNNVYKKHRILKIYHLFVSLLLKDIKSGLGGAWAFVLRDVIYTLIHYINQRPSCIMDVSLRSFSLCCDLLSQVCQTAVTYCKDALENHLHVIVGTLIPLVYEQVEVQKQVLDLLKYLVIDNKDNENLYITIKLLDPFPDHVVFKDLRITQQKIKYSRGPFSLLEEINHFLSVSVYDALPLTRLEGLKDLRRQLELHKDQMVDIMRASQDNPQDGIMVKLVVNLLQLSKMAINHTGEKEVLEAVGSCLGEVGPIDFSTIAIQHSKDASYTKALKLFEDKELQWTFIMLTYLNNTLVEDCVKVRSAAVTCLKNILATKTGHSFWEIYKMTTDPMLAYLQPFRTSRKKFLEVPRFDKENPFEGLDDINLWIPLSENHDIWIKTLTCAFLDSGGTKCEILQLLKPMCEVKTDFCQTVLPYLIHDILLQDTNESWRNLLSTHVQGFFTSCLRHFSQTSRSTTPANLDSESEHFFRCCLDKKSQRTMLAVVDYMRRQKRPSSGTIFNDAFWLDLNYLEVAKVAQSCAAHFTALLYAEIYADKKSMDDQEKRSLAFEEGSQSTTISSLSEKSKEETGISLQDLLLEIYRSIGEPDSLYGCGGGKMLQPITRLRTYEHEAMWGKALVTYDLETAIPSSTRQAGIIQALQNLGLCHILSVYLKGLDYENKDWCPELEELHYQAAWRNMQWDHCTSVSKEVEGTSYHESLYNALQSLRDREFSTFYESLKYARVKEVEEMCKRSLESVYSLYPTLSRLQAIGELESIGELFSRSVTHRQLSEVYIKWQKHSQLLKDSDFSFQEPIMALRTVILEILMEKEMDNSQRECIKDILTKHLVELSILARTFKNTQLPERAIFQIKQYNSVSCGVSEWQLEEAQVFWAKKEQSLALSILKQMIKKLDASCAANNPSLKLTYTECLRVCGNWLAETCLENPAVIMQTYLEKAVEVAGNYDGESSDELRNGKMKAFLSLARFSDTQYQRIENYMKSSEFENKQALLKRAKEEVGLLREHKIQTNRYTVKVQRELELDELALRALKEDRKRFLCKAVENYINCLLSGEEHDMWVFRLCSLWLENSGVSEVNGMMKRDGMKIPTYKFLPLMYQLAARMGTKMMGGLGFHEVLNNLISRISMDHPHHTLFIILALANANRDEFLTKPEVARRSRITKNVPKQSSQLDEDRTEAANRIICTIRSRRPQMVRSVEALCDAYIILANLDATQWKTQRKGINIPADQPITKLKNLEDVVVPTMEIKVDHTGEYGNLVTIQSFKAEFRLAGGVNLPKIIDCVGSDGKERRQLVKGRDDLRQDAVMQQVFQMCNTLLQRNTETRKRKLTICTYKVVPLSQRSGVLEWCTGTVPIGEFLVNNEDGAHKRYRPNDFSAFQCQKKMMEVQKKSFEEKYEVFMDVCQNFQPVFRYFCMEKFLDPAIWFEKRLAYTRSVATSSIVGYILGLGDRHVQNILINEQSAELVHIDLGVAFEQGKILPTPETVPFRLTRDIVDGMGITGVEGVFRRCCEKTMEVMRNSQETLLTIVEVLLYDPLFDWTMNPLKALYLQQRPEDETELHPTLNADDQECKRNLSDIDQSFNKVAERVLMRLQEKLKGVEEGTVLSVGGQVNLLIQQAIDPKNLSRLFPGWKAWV
Experimental: ATM: Recombinant, full length human FLAG-tagged ATM activity (Eurofins 14-933) was measured in an ELISA for p53 S15 phosphorylation, in a 384 well V-bottom polypropylene plate (Greiner Bio One 781280). Reactions contained 0.75 nM ATM, 25 nM full length myc tagged p53 (Eurofins 23-034), 10 μM UltraPure ATP (Promega V915B) and serial dilutions of inhibitors (0.1% DMSO final) in 25 mM HEPES, pH 7.5. 5 mM MgCl2, 2.5 mM MnCl2, 0.006% Brij-35, 0.5% glycerol, 0.1 mg/ml BSA, 0.5 mM DTT and were allowed to proceed for 30 min at 20° C. 70 mM EDTA final terminated the kinase reactions. An aliquot of the terminated reaction (25 μl) was transferred to a 384-well, high binding microplate (Greiner Bio One 781061), precoated with anti-myc capture antibody overnight (Millipore 05-724) diluted in 1:1000 in PBS, then blocked with Odyssey blocking buffer (LI-COR Biosciences 92740000) for 60 min at 20° C. The terminated reaction was allowed to capture for 2 h at 20° C. Phosphorylation was measured using an antibody specific to p53 S15 phosphorylation (1:5000 Abcam ab38497), anti-rabbit HRP (1:1000 Cell Signalling Technology, 7074) and TMB (ab171522). Antibodies were diluted in Odyssey blocking buffer and incubated for 60 min at 20° C. Three washes with PBS containing 0.05% (v/v) Tween 20 (PBS-T) were performed between each incubation. The TMB reaction was stopped with an equal volume of 0.2 M sulfuric acid and absorbance read at 450 nm on the Perkin Elmer Envision within 30 min of terminating the reaction. […] IC50 values represent the mean from at least two independent experiments.

cellular ATM activity = cellular ATM activity (Homo sapiens (Human), UniProt Q13315); assay: Inhibition of cellular ATM activity: etoposide-stimulated KAP1 phosphorylation in U20S cells; type: cell-based; details: 100 μM etoposide, 60 min, read-out: ATM CELL IC50
Chain of cellular ATM activity (Q13315 whole entry): as above
Experimental: Inhibition of cellular ATM activity was determined by changes in etoposide-stimulated KAP1 phosphorylation, based on the work of Guo et al. 2014.
Cryopreserved U20S cells were plated overnight at 6 k cells/well in black walled, clear bottomed 384 well plates (Greiner Bio One 781090). After overnight incubation (37 C, 5% CO2), cells were incubated with titrations of test compounds (0.3% DMSO final) in the presence of 100 μM etoposide (Sigma E1383) to stimulate ATM via induction of double stranded DNA breaks. After 60 min, cells were fixed using 100% cold methanol and incubated at −20° C. for 10 min. Fixed cells were washed with PBS containing 0.05% (v/v) Tween 20 (PBS-T) prior to a 60 minute blocking step in Odyssey blocking buffer (LI-COR Biosciences 92740000). Primary antibodies (1:1000 phosphorylated KAP1: Cell Signalling Technology 4127, 1:5000 total KAP1: Cell Signaling Technology 5868) were diluted in Odyssey blocking buffer and incubated overnight at 4° C., before addition of IRDye(R) conjugated secondary antibodies (LI-COR Biociences 926-32211, LI-COR Biosciences 926-68070) diluted 1:2000 in Odyssey blocking buffer for 60 min at room temperature and detection by LI-COR Odyssey (ImageStudio version 2.1.10, focus offset 4 mm, resolution 169 μm, lowest quality, intensities of 1 and 3 for 700 and 800 channels respectively). Immunoreactivity was quantified and the ratio of phosphorylated KAP1 calculated by dividing by the total KAP1 immunoreactivity. The percentage of inhibition was calculated for each concentration of compound using 100% (100 μM etoposide+30 μM KU-60019) and 0% effect controls (100 μM etoposide+DMSO). IC50 values represent the mean from at least two independent experiments.

IC50 [1]: 22.5 nM | IC50 (cellular ATM activity): 1070 nM
Compound: CC1CCC[C@H](Cc2ccccc2)N(c2nc(N3CCOCC3)cc(=O)[nH]2)C1 (single isomer, unassigned) [Example 246]

IC50 [1]: 5.3 nM | IC50 (cellular ATM activity): 538 nM
Compound: C[C@@H]1CN(c2cc(=O)[nH]c(N3CC[C@@H](F)[C@@H]3Cc3ccccc3)n2)CCO1 [Example 319, 2-((2S,3R)-2-benzyl-3-fluoropyrrolidin-1-yl)-6-((R)-2-methylmorpholino)pyrimidin-4(3H)-one]

IC50 [1]: 14.1 nM | IC50 (cellular ATM activity): 693 nM
Compound: COc1ccccc1C[C@H]1CCCCCN1c1nc(N2CCOCC2)cc(=O)[nH]1 [Example 201]

IC50 [1]: 61.3 nM | IC50 (cellular ATM activity): 3050 nM
Compound: C[C@H]1CCN(c2nc(N3CCOCC3)cc(=O)[nH]2)[C@H]1Cc1ccccc1 [Example 261, 2-((2S,3S)-2-benzyl-3-methylpyrrolidin-1-yl)-6-morpholinopyrimidin-4(3H)-one]

IC50 [1]: 70.9 nM | IC50 (cellular ATM activity): 1260 nM
Compound: O=c1cc(N2CCOCC2)nc(N2CC[C@H](O)[C@@H]2Cc2ccccc2)[nH]1 [Example 255, 2-((2S,3S)-2-benzyl-3-hydroxypyrrolidin-1-yl)-6-morpholinopyrimidin-4(3H)-one]

IC50 [1]: 24.6 nM | IC50 (cellular ATM activity): 1020 nM
Compound: C[C@@H]1CN(c2cc(=O)[nH]c(N3CCCCC[C@@H]3Cc3cccs3)n2)CCO1 [Example 286, 6-((R)-2-methylmorpholino)-2-((R)-2-(thiophen-2-ylmethyl)azepan-1-yl)pyrimidin-4(3H)-one]

IC50 [1]: 69.5 nM | IC50 (cellular ATM activity): 756 nM
Compound: COc1cc(F)ccc1C[C@H]1CCCCCN1c1nc(N2CCOCC2)cc(=O)[nH]1 [Example 228]

IC50 [1]: 24 nM | IC50 (cellular ATM activity): 1530 nM
Compound: CC1OCCN(c2cc(=O)[nH]c(N3CCCC3Cc3ccccc3)n2)C1C (single isomer, unassigned) [Example 352, 2-(2-benzylpyrrolidin-1-yl)-6-(2,3-dimethylmorpholino)pyrimidin-4(3H)-one]

IC50 [1]: 16.4 nM | IC50 (cellular ATM activity): 813 nM
Compound: C[C@@H]1CN(c2cc(=O)[nH]c(N3CCCCC[C@@H]3Cc3ccsc3)n2)CCO1 [Example 315, 6-((R)-2-methylmorpholino)-2-((R)-2-(thiophen-3-ylmethyl)azepan-1-yl)pyrimidin-4(3H)-one]

IC50 [1]: 13.7 nM | IC50 (cellular ATM activity): 530 nM
Compound: Cc1ccccc1C[C@H]1CCCCCN1c1cc(N2CCOCC2)cc(=O)[nH]1 [Example 25, (R)-6-(2-(2-methylbenzyl)azepan-1-yl)-4-morpholinopyridin-2(1H)-one]

IC50 [1]: 14.9 nM | IC50 (cellular ATM activity): 711 nM
Compound: COc1ccccc1C[C@H]1CCCCN1c1nc(N2CCOCC2)cc(=O)[nH]1 [Example 197]

IC50 [1]: 46.1 nM | IC50 (cellular ATM activity): 857 nM
Compound: C[C@@H]1CN(c2cc(=O)[nH]c(N3CCCCC[C@@H]3Cc3ccccc3F)n2)CCO1 [Example 317, 2-((R)-2-(2-fluorobenzyl)azepan-1-yl)-6-((R)-2-methylmorpholino)pyrimidin-4(3H)-one]

IC50 [1]: 9.8 nM | IC50 (cellular ATM activity): 282 nM
Compound: O=c1cc(N2CCOCC2)nc(N2CC3(CC3)C[C@@H]2Cc2ccccc2)[nH]1 [Example 262, (S)-2-(6-benzyl-5-azaspiro[2.4]heptan-5-yl)-6-morpholinopyrimidin-4(3H)-one]

IC50 [1]: 8 nM | IC50 (cellular ATM activity): 451 nM
Compound: O=c1cc(N2CCOCC2)nc(N2CCC[C@@H]2Cc2ccccc2)[nH]1 [Example 178, (R)-2-(2-benzylpyrrolidin-1-yl)-6-morpholinopyrimidin-4-ol]

IC50 [1]: 30 nM | IC50 (cellular ATM activity): 1340 nM
Compound: O=c1cc(N2CCOCC2)nc(N2CCCC2Cn2cnc3ccccc32)[nH]1 (centres unmarked) [Example 192]

IC50 [1]: 84.5 nM | IC50 (cellular ATM activity): 9760 nM
Compound: CC1(C)CCCN(c2nc(N3CCOCC3)cc(=O)[nH]2)[C@@H](Cc2ccccc2)C1 [Example 242]

More lines, now with the values behind:

Compound: Cc1ccc(C[C@H]2CCCN2c2cc(N3CCOCC3)cc(=O)[nH]2)cc1 [Example 20, (R)-6-(2-(4-methylbenzyl)pyrrolidin-1-yl)-4-morpholinopyridin-2(1H)-one]
IC50 [1]: 54.1 nM | IC50 (cellular ATM activity): 2930 nM

Compound: O=c1cc(N2CCOCC2)cc(N2CCCCC[C@@H]2Cc2cccc3c2OCC3)[nH]1 [Example 57, (R)-6-(2-((2,3-dihydrobenzofuran-7-yl)methyl)azepan-1-yl)-4-morpholinopyridin-2(1H)-one]
IC50 [1]: 18 nM | IC50 (cellular ATM activity): 292 nM

Compound: CC(c1ccccc1)C1CCCN1c1nc(N2CCOCC2)cc(=O)[nH]1 (racemic) [Example 252, 6-morpholino-2-((R*)-2-((S*)-1-phenylethyl)pyrrolidin-1-yl)pyrimidin-4(3H)-one]
IC50 [1]: 63.7 nM | IC50 (cellular ATM activity): 2290 nM

Compound: C[C@@H]1CCCN(c2cc(N3CCOCC3)cc(=O)[nH]2)[C@@H](Cc2ccccc2)C1 [Example 84, 6-((2R,4R)-2-benzyl-4-methylazepan-1-yl)-4-morpholinopyridin-2(1H)-one]
IC50 [1]: 47.6 nM | IC50 (cellular ATM activity): 864 nM

Compound: O=c1cc(C2=CCOCC2)cc(N2CCCCC[C@@H]2Cc2ccccc2)[nH]1 [Example 167, (R)-6-(2-benzylazepan-1-yl)-4-(3,6-dihydro-2H-pyran-4-yl)pyridin-2(1H)-one]
IC50 [1]: 38.7 nM | IC50 (cellular ATM activity): 1540 nM

Compound: O=c1cc(N2CCOCC2)cc(N2CC[C@@H](F)[C@@H]2Cc2ccccc2)[nH]1 [Example 96, 6-((2S,3R)-2-benzyl-3-fluoropyrrolidin-1-yl)-4-morpholinopyridin-2(1H)-one]
IC50 [1]: 5.5 nM | IC50 (cellular ATM activity): 270 nM

Compound: O=c1cc(N2CCOCC2)cc(N2CCC[C@@H]2Cc2ccccc2)[nH]1 [Example 1, (R)-6-(2-benzylpyrrolidin-1-yl)-4-morpholinopyridin-2(1H)-one]
IC50 [1]: 36.2 nM | IC50 (cellular ATM activity): 3380 nM

Compound: C[C@@H]1CN(c2cc(N3[C@@H]4CC[C@@H](C4)[C@@H]3Cc3ccccc3)[nH]c(=O)c2)CCO1 [Example 117, 6-((1R,3S,4S)-3-benzyl-2-azabicyclo[2.2.1]heptan-2-yl)-4-((R)-2-methylmorpholino) pyridin-2(1H)-one]
IC50 [1]: 72.8 nM | IC50 (cellular ATM activity): 684 nM

Compound: O=c1cc(N2CCOCC2)nc(N2C[C@@H]3C[C@@H]3[C@@H]2Cc2ccccc2)[nH]1 [Example 211]
IC50 [1]: 3.7 nM | IC50 (cellular ATM activity): 446 nM

Compound: COc1ccc(C[C@H]2CCCN2c2cc(N3CCOCC3)cc(=O)[nH]2)cc1 [Example 13, (R)-6-(2-(4-methoxybenzyl)pyrrolidin-1-yl)-4-morpholino pyridin-2(1H)-one]
IC50 [1]: 70.5 nM | IC50 (cellular ATM activity): 4490 nM

Compound: CC1C[C@H](Cc2ccccc2)N(c2cc(N3CCOCC3)cc(=O)[nH]2)C1 (single isomer, unassigned) [Example 100, 6-((2R,4R*)-2-benzyl-4-methylpyrrolidin-1-yl)-4-morpholinopyridin-2(1H)-one]
IC50 [1]: 33.1 nM | IC50 (cellular ATM activity): 1630 nM

Compound: COc1ccccc1C[C@H]1[C@@H]2C[C@@H]2CN1c1cc(N2CCOCC2)cc(=O)[nH]1 [Example 126]
IC50 [1]: 6.9 nM | IC50 (cellular ATM activity): 388 nM

Compound: O=c1cc(N2CCOCC2)cc(N2CC(F)(F)C[C@@H]2Cc2ccccc2)[nH]1 [Example 102, (S)-6-(2-benzyl-4,4-difluoropyrrolidin-1-yl)-4-morpholinopyridin-2(1H)-one]
IC50 [1]: 39.6 nM | IC50 (cellular ATM activity): 2220 nM

Compound: COC[C@@H](C)Oc1ccc(C[C@H]2CCCN2c2cc(N3CCOCC3)cc(=O)[nH]2)cc1 [Example 145, 6-((R)-2-(4-(((R)-1-methoxypropan-2-yl)oxy)benzyl)pyrrolidin-1-yl)-4-morpholinopyridin-2(1H)-one]
IC50 [1]: 65.6 nM | IC50 (cellular ATM activity): 2030 nM

Compound: O=c1cc(N2CCOCC2)cc(N2C[C@H]3CC[C@H](C3)[C@@H]2Cc2ccccc2)[nH]1 [Example 135]
IC50 [1]: 8.7 nM | IC50 (cellular ATM activity): 178 nM
